Consider 16 molecules from patent US20240131001A1, “PHARMACEUTICAL APPLICATION OF FUSED RING PHENOLIC COMPOUNDS” (RISEN (SUZHOU) PHARMA TECH CO. LTD., priority 2020, published 2024).

One series concerns PPK. The series is described as follows: PPK inhibitor screening assay (Table 1, PPK isoform not given). It counts as biochemical, Pseudomonas aeruginosa. The following applies: PPK isoform not stated; for IC50: read-out: IC50 Values for PPK Inhibition. The source says:
(§1) In order to evaluate the inhibitory effect of the compounds on PPKs, the PPK1, PPK2A, PPK2B and PPK2C were used respectively to test the above compounds using a kit described in an article (Liang Peng et al. & Ning Sun (2020) Discovery and antibacterial study of potential PPK1 inhibitors against uropathogenic E. coli, Journal of Enzyme Inhibition and Medicinal Chemistry, 35:1, 1224-1232).

In a further series the target is PPK1 (Pseudomonas aeruginosa, UniProt P0DP44). Put plainly: PPK inhibitor screening assay, PPK1. The format is biochemical.
From the text: as §1

The next series has as its target PPK2B (Pseudomonas aeruginosa, UniProt Q9I154). The series is described as follows: PPK inhibitor screening assay, PPK2B. It counts as biochemical.
From the text: as §1

In the next series the target is PPK2A (Pseudomonas aeruginosa, UniProt Q9I6Z1). The series is described as follows: PPK inhibitor screening assay, PPK2A. The format is biochemical.
From the text: as §1

In another series the target is PPK2C (Pseudomonas aeruginosa, UniProt Q9HYF1). Put plainly: PPK inhibitor screening assay, PPK2C. It counts as biochemical.
From the text: as §1

Series [1] has as its system Pseudomonas aeruginosa. Put plainly: Biofilm testing. The format is cell-based. The following applies: 100 μM compound. How it is done: FIG. 2: Effect of Compound 4 on Biofilm Formation in Different Pseudomonas Aeruginosa Strains. A: absorbance. The experimental concentration of compound 4 was 100 μM, and “−” or “+” indicates the absence or presence of compound 4; WT: wild-type strain; Δ ppk 1 is the PPK1 knocked out strain; Δ ppk2A, Δppk2B and Δppk2C are the strains with PPK2A, PPK2B, PPK2C knocked out; Δppk1, Δppk2AΔppk2B, Δppk2C are the strains with PPK1, PPK2A, PPK2B and PPK2C knocked out.
Pseudomonas aeruginosa can form biofilm in culture medium. Four groups of LB liquid media were set respectively, among them, group A was inoculated with wild-type Pseudomonas aeruginosa (WT); group B was inoculated with PPK1 knocked out Pseudomonas aeruginosa (A ppkl); group C was inoculated with PPK2A, PPK2B and PPK2C knocked out Pseudomonas aeruginosa (Δ ppk 2A, Δ ppk 2B, Δ ppk 2C); group D was inoculated with PPK1 and PPK2A, PPK2B and PPK2C knocked out Pseudomonas aeruginosa (Δ ppk1, Δ ppk 2Δ A ppk 2B, Δ ppk 2C). After the four groups were infected with Pseudomonas aeruginosa, each group was further divided into two groups, with one group added with DMSO (−) as the control, the other group added with 100 μm compound 4 (+). […] And this biofilm formed in the culture medium of groups A, B, C and D was analyzed using 570 nm visible light.

The subject of series [2] is Pseudomonas aeruginosa. The series is described as follows: Nematode survival test. The following applies: Caenorhabditis elegans infected with wild-type Pseudomonas aeruginosa, six days. It counts as in vivo. From the text:
FIG. 3: Effect of Compound 4 on the Survival Rate of Nematodes Infected with Pseudomonas Aeruginosa.
Caenorhabditis elegans were divided into five groups A, B, C, D, E, and then subjected to modeling respectively. Caenorhabditis elegans in group A and B were infected with wild-type (WT) Pseudomonas aeruginosa. Group A served as the DMSO control group and group B as compound 4 treatment group. Caenorhabditis elegans in groups C and D were infected with Pseudomonas aeruginosa which was knocked out of all PPK (ΔpolyP, Δppk1Δppk2ΔAppk2BΔ ppk 2C), where group C was DMSO control group and group D served as compound 4 treatment group; and group E was infected with Escherichia coli (0P50E. Coli). After modeling, Caenorhabditis elegans in groups A and C were continuously treated with DMSO, and those in groups B, D and E were continuously treated with compound 4. The environment and conditions were consistent across the five groups. Six days later, the survival rate of nematodes in five groups was calculated.

Series [3] has as its system human embryonic kidney cells (HEK239T). The series is described as follows: HEK cytotoxicity test (Trypan blue staining cell viability assay). To be noted: for relative viability rate: 100 μM, relative to DMSO; for cytotoxicity: up to 100 μM. The format is cell-based. As to the method:
FIG. 4: Toxicity Assay of Compound 4 and Compound B on Human Embryonic Kidney Cells (HEK Cells): Relative Viability in the Presence of DMSO (Control), Compound B (100 μM), and Compound 4 (100 μM).
The cytotoxicity of the compounds was assessed in cultured human embryonic kidney cells (HEK239T) using the Trypan blue staining cell viability assay. The blank solvent DMSO, compound B, and compound 4 were tested, respectively.

Like-named read-outs stand apart in the source and are kept apart here.

As usually defined, the IC50 is the point on the concentration scale where inhibition reaches its midpoint.

PPK2B, sequence (Q9I154 whole entry): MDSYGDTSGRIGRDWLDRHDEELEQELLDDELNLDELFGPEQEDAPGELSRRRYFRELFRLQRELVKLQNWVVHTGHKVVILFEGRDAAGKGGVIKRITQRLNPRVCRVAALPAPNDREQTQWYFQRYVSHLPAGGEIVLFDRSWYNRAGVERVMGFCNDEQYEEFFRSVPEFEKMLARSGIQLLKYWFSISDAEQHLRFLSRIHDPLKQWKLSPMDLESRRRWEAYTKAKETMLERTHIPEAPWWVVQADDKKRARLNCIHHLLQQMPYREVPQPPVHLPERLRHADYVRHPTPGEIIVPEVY
PPK1, sequence (P0DP44 whole entry): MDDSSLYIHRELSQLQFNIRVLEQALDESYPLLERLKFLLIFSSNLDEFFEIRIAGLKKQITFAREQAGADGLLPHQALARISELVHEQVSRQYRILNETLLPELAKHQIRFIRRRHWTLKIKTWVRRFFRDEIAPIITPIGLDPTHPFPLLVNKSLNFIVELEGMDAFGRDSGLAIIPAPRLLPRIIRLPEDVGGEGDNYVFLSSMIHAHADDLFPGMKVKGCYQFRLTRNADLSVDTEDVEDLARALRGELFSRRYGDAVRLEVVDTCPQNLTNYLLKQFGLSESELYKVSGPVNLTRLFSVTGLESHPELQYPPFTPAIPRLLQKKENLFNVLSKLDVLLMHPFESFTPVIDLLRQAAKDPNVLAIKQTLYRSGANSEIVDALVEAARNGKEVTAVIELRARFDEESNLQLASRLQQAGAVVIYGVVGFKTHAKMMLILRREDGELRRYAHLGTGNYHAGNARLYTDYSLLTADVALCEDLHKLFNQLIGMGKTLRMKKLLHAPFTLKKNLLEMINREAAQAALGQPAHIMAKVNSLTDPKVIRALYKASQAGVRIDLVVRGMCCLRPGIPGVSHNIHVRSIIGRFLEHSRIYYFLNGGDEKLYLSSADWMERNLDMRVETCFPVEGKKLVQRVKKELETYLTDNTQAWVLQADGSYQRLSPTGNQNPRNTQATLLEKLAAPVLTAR
PPK2A, sequence (Q9I6Z1 whole entry): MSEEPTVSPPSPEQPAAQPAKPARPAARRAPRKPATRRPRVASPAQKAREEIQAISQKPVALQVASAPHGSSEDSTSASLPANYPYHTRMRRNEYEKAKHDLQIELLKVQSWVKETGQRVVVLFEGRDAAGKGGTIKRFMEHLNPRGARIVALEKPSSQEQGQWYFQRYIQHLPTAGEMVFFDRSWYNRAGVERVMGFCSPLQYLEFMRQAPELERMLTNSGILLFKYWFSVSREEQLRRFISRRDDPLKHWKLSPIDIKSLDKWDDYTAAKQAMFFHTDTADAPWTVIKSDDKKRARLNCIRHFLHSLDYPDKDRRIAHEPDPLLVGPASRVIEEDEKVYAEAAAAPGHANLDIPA
PPK2C, sequence (Q9HYF1 whole entry): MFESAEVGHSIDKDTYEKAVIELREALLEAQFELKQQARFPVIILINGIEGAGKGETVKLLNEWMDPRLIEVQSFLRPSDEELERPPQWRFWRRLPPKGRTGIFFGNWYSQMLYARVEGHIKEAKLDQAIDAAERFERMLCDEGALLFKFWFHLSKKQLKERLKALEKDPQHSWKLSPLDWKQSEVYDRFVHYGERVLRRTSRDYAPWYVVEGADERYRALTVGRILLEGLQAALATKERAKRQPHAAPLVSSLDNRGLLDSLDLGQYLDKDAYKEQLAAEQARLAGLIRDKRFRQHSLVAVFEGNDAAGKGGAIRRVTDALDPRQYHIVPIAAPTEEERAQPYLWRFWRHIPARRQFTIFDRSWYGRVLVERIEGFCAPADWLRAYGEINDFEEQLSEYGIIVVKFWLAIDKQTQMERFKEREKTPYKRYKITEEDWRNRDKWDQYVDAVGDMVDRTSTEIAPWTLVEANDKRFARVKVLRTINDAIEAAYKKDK

With `O=c1oc2cc(O)ccc2c2ccc(O)c(O)c12` [C, reference compound], the IC50 with PPK is above 100 µM.

In the case of `O=c1cc(-c2cc(O)c(O)c(O)c2Br)oc2c(O)c(O)ccc12` [Compound 1], the IC50 in the series with PPK came to 6 µM.

On to `O=c1oc2c(O)c(O)c(O)c3c(=O)oc4c(O)c(O)cc1c4c23` [Compound 2], for which the IC50 with PPK worked out at 8 µM; on PPK1 (read-out: IC50 PPK1), 20 µM; against PPK2B, 59 µM.

As for `O=c1oc2c(O)c(O)cc3c(=O)oc4c(O)c(O)cc1c4c23` [Compound 3], the IC50 was 9 µM in the series on PPK, 20 µM on PPK1 (read-out: IC50 PPK1), 50 µM against PPK2A and 48 µM against PPK2B.

With `O=C1OC2(c3ccccc31)c1ccc(O)c(O)c1Oc1c2ccc(O)c1O` [Compound 4], the IC50 in the series with PPK worked out at 17 µM; at PPK1 (read-out: IC50 PPK1), 17 µM; at PPK2A, 16 µM; on PPK2B, 20 µM; on PPK2C, 165 µM. Also, the “inhibitory effect on PPK1 and PPK2 seen in biofilm test” value in the series on Pseudomonas aeruginosa [1] (PPK knocked out strains) is on record as “not only inhibited PPK1, but also exhibited a good inhibitory effect on PPK2”. Besides, the “biofilm formation (570 nm absorbance)” value with Pseudomonas aeruginosa [1] (wild-type Pseudomonas aeruginosa, 37° C., 24 h) is “could reduce the formation of biofilm”. Moreover, the mortality of nematodes entry with Pseudomonas aeruginosa [2] is reported as “significantly reduced”. This molecule displayed a relative viability rate in series [3] of around 100%. The cytotoxicity result in series [3] is reported as “no cytotoxicity”.

With `O=S1(=O)OC2(c3ccccc31)c1ccc(O)c(O)c1Oc1c2ccc(O)c1O` [Compound 5], the IC50 in the series on PPK amounted to 26.3 µM; on PPK1 (read-out: IC50 PPK1) it was 26 µM; on PPK2A it was 24 µM; against PPK2B, 31 µM; against PPK2C, 273 µM.

As for `O=S1(=O)OC2(c3ccccc31)c1cc(Br)c(O)c(O)c1Oc1c2cc(Br)c(O)c1O` [Compound 6], in the series with PPK, the IC50 was found to be 7.59 µM.

`O=c1c(O)c(-c2cc(O)c(O)c(O)c2)oc2cc(O)cc(O)c12` [Compound 7]: the IC50 with PPK came to 39 µM.

For `O=c1cc(-c2cc(O)c(O)c(O)c2-c2ccsc2)oc2c(O)c(O)ccc12` [Compound 10], the IC50 with PPK was 36 µM.

As to `O=c1c(O)c(-c2ccc(O)cc2O)oc2cc(O)cc(O)c12` [Compound A, reference compound], the “IC50 Values for PPK Inhibition” value in the series with PPK is “Inactive”.

Consider `O=c1oc2c(O)c(O)ccc2c2ccc(O)c(O)c12` [Compound B, reference compound], for which the 50% inhibitory concentration (IC50) in the series on PPK was found to be 150 µM. It took 120 µM to reach half-maximal inhibition against PPK1 (IC50). Besides, in series [3], the relative viability rate entry is recorded as “approximately 35%” and the cytotoxicity result was “caused a large number of cell death”.

For `Cc1c(C2(c3cc(Br)c(O)c(Br)c3C)OS(=O)(=O)c3ccccc32)cc(Br)c(O)c1Br` [Compound F, reference compound], the “IC50 Values for PPK Inhibition” value in the series on PPK is recorded as “Inactive”.

In the case of `O=c1c(O)c(-c2ccc(O)c(O)c2)oc2cc(O)cc(O)c12` [Compound G, reference compound], the IC50 in the series on PPK amounted to 177 µM.

On to `C[C@@H]1O[C@@H](OC[C@H]2O[C@@H](Oc3c(-c4ccc(O)c(O)c4)oc4cc(O)cc(O)c4c3=O)[C@H](O)[C@@H](O)[C@@H]2O)[C@H](O)[C@H](O)[C@H]1O` [Compound H, reference compound], for which the “IC50 Values for PPK Inhibition” value with PPK is listed as “Inactive”.

Consider `O=C1OC2(c3ccc(O)cc3Oc3cc(O)ccc32)c2ccccc21` [D, reference compound], for which the IC50 with PPK was above 200 µM.

Regarding `O=C(O)c1ccc2c(c1)C1(OC2=O)c2ccc(O)cc2Oc2cc(O)ccc21` [E, reference compound], in the series with PPK, the IC50 was above 200 µM.
